pKi: −log10 of the molar value.
How the values were obtained:
Assay type in all cases: biochemical
[1] = target: FXa (Homo sapiens, UniProt P00742); test: Determination of selectivity: FXa inhibition, chromogenic substrate S2765 assay; conditions: fold selectivity for FXIIa over FXa
Method in brief: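 Human FXa (5 nM) preincubated with compound (top 500 μM, 5% DMSO) 10 min at 37 °C in 50 mM Tris, 137 mM NaCl pH 7.4, then S2765 ([…]) added; A405 kinetics over 3 h at 37 °C. IC50 from initial rates, converted to Ki via Cheng-Prusoff.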

[2] = target: T1, thrombin (Homo sapiens, UniProt P00734); test: Determination of selectivity: thrombin inhibition, chromogenic substrate GPR assay; conditions: fold selectivity for FXIIa over thrombin
T1 construct: FXa (5 nM) and thrombin (5 nM)
Method in brief: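 Thrombin (5 nM) preincubated with compound 10 min at 37 °C in 50 mM Tris, 137 mM NaCl, pH 7.4, 5% DMSO, then GPR substrate ([…]) added. Absorbance at 405 nm read kinetically for 3 h; IC50 from initial rates, converted to Ki via Ki=IC50/(1+[S]/Km).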

[3] = target: T2, FXIIa (Homo sapiens, UniProt P00748); test: Determination of Factor XIIa inhibition, chromogenic substrate S-2302 assay; conditions: human FXIIa alpha
T2 sequence (P00748 373-615 limits assumed): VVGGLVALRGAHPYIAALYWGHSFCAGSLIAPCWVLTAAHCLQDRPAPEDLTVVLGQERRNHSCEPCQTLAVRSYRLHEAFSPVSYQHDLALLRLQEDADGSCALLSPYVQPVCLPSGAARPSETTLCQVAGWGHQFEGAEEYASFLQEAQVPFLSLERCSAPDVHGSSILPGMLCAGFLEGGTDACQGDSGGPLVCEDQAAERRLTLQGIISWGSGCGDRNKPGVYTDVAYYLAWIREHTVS
T2 sequence (P00748 20-372 partner limits assumed): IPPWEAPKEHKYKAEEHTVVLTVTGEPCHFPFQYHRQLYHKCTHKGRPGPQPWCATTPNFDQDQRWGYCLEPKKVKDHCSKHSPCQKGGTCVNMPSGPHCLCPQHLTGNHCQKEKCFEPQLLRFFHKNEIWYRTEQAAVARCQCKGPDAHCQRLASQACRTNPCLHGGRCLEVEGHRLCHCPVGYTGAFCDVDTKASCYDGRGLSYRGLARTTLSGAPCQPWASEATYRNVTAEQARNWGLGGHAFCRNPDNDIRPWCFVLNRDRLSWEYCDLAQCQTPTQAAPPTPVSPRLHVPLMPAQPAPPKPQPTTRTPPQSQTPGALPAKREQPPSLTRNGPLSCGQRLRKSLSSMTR
Method in brief: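 FXIIa (10 nM) preincubated with compound 10 min at 37° C. in 50 mM Tris, 137 mM NaCl pH 7.4, 5% DMSO, top concentration 500 μM, then S-2302 added ([…]). Absorbance at 405 nm read kinetically for 3 h; IC50 from initial rates, converted to Ki by Cheng-Prusoff.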

FXa, sequence (P00742 235-488 limits assumed): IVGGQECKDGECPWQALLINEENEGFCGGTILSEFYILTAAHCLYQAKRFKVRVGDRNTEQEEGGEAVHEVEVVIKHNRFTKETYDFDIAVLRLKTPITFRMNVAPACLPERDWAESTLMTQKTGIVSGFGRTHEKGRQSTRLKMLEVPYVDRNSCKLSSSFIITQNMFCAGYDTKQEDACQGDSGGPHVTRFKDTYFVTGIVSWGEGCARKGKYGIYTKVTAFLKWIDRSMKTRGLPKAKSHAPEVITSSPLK
FXa, sequence (P00742 41-179 partner limits assumed): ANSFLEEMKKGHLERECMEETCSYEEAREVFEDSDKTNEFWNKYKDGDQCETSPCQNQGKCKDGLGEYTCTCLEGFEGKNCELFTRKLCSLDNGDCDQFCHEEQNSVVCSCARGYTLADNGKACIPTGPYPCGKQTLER

SMILES	FXa (human)/FXIIa alpha (human) [1]	Thrombin (human)/FXIIa alpha (human) [2]	pKi [3]
Cn1nnc2cc(CNC(=O)[C@@H]3C[C@@H](Cc4cccc(Br)c4)CN3C(=O)[C@H](N)CCC(=O)N3CCCC3)ccc21 [Example M05317]	∘∘∘	+++ (fold selectivity values greater than 100)	> 6.70
Cn1nnc2cc(CNC(=O)[C@]3(C)CCCN3C(=O)[C@H](N)CCC(=O)N3CCCC3)ccc21 [Example M05318]	∘∘	+ (fold selectivity values less than 10)	< 5.70
Cn1nnc2cc(CNC(=O)[C@@H]3CC(Cc4cccc(C#N)c4)CN3C(=O)[C@H](N)CCC(=O)N3CCCC3)ccc21 (stereo partly drawn) [Example M05319]	∘∘∘	+++ (fold selectivity values greater than 100)	5.70 to 6.70
Cn1nnc2cc(CNC(=O)[C@@H]3CC(Cc4ccccc4C#N)CN3C(=O)[C@H](N)CCC(=O)N3CCCC3)ccc21 (stereo partly drawn) [Example M05320]	∘∘∘	+++ (fold selectivity values greater than 100)	> 6.70
Cn1nnc2cc(CNC(=O)[C@@H]3C[C@@H](Cc4cccc(-c5ccncc5)c4)CN3C(=O)[C@H](N)CCC(=O)N3CCCC3)ccc21 [Example M05323]	∘∘∘	+++ (fold selectivity values greater than 100)	> 6.70
Cn1nnc2cc(CNC(=O)[C@@H]3C[C@@H](Cc4ccc(F)cc4)CN3C(=O)C3C[C@@H](c4ccccc4)CN3)ccc21 (stereo partly drawn) [Example M05324]	∘∘	++ (fold selectivity value of 10 to 100)	< 5.70
Cn1nnc2cc(CNC(=O)[C@@H]3C[C@@H](Cc4ccc(F)c(F)c4)CN3C(=O)C3C[C@@H](c4ccccc4)CN3)ccc21 (stereo partly drawn) [Example M05325]	∘∘	++ (fold selectivity value of 10 to 100)	< 5.70
Cn1nnc2cc(CNC(=O)[C@@H]3C[C@@H](Cc4ccc(Br)cc4)CN3C(=O)[C@H](N)CCC(=O)N3CCCC3)ccc21 [Example M05326]	∘∘∘	+++ (fold selectivity values greater than 100)	> 6.70
Cn1nnc2cc(CNC(=O)[C@@H]3C[C@@H](Cc4cccc(F)c4)CN3C(=O)[C@H]3C[C@@H](c4ccccc4)CN3)ccc21 [Example M05327]	∘	++ (fold selectivity value of 10 to 100)	< 5.70
Cc1ccc(C[C@@H]2C[C@@H](C(=O)NCc3ccc4c(c3)nnn4C)N(C(=O)[C@H]3C[C@@H](c4ccccc4)CN3)C2)cc1 [Example M05328]	∘∘∘	++ (fold selectivity value of 10 to 100)	5.70 to 6.70
Cn1nnc2cc(CNC(=O)[C@@H]3CC(Cc4ccccc4Br)CN3C(=O)[C@H]3C[C@@H](c4ccccc4)CN3)ccc21 (stereo partly drawn) [Example M05329]	∘∘	++ (fold selectivity value of 10 to 100)	< 5.70
Cn1cc(-c2cccc(C[C@@H]3C[C@@H](C(=O)NCc4ccc5c(c4)nnn5C)N(C(=O)[C@H](N)CCC(=O)N4CCCC4)C3)c2)cn1 [Example M05330]	∘∘∘	+++ (fold selectivity values greater than 100)	5.70 to 6.70
Cn1nnc2cc(CNC(=O)[C@@H]3C[C@@H](Cc4ccccc4F)CN3C(=O)[C@H]3C[C@@H](c4ccccc4)CN3)ccc21 [Example M05332]	∘∘	++ (fold selectivity value of 10 to 100)	< 5.70
Cn1nnc2cc(CNC(=O)[C@@H]3C[C@@H](Cc4ccccc4Cl)CN3C(=O)[C@H]3C[C@@H](c4ccccc4)CN3)ccc21 [Example M05333]	∘	++ (fold selectivity value of 10 to 100)	< 5.70
Cn1nnc2cc(CNC(=O)[C@@H]3C[C@@H](Cc4ccc(C(F)(F)F)cc4)CN3C(=O)[C@H]3C[C@@H](c4ccccc4)CN3)ccc21 [Example M05334]	∘∘	++ (fold selectivity value of 10 to 100)	5.70 to 6.70
Cn1nnc2cc(CNC(=O)[C@@H]3C[C@@H](Cc4cccc(Cl)c4)CN3C(=O)[C@H]3C[C@@H](c4ccccc4)CN3)ccc21 [Example M05335]	∘∘	++ (fold selectivity value of 10 to 100)	< 5.70
Cn1nnc2cc(CNC(=O)[C@@H]3C[C@@H](Cc4ccc(C(F)(F)F)cc4)CN3C(=O)[C@H](N)CCC(=O)N3CCCC3)ccc21 [Example M05336]	∘∘∘	+++ (fold selectivity values greater than 100)	> 6.70
Cn1nnc2cc(CNC(=O)[C@@H]3C[C@@H](Cc4ccccc4C#N)CN3C(=O)[C@H]3C[C@@H](c4ccccc4)CN3)ccc21 [Example M05337]	∘∘	++ (fold selectivity value of 10 to 100)	< 5.70
Cn1nnc2cc(CNC(=O)[C@@H]3C[C@@H](Cc4cccnc4)CN3C(=O)[C@H]3C[C@@H](c4ccccc4)CN3)ccc21 [Example M05338]	∘∘	++ (fold selectivity value of 10 to 100)	< 5.70
COc1ccc(C[C@@H]2C[C@@H](C(=O)NCc3ccc4c(c3)nnn4C)N(C(=O)[C@H]3C[C@@H](c4ccccc4)CN3)C2)cc1Cl [Example M05339]	∘∘∘	+++ (fold selectivity values greater than 100)	5.70 to 6.70
COc1ccc(C[C@@H]2C[C@@H](C(=O)NCc3ccc4c(c3)nnn4C)N(C(=O)[C@H]3CC(c4ccc(F)cc4)CN3)C2)cc1 (stereo partly drawn) [Example M05340]	∘∘	++ (fold selectivity value of 10 to 100)	5.70 to 6.70
Cn1cc(-c2ccc(C[C@@H]3C[C@@H](C(=O)NCc4ccc5c(c4)nnn5C)N(C(=O)[C@H](N)CCC(=O)N4CCCC4)C3)cc2)cn1 [Example M05341]	∘∘∘	+++ (fold selectivity values greater than 100)	5.70 to 6.70
Cn1nnc2cc(CNC(=O)[C@@H]3C[C@@H](Cc4ccc(Br)cc4)CN3C(=O)[C@H]3C[C@@H](c4ccccc4)CN3)ccc21 [Example M05342]	∘∘∘	++ (fold selectivity value of 10 to 100)	5.70 to 6.70
COc1ccc(C[C@@H]2C[C@@H](C(=O)NCc3ccc4c(c3)nnn4C)N(C(=O)[C@H]3CC(c4ccc(C(F)(F)F)cc4)CN3)C2)cc1 (stereo partly drawn) [Example M05345]	∘∘	++ (fold selectivity value of 10 to 100)	< 5.70
COc1ccc(C[C@@H]2C[C@@H](C(=O)NCc3ccc4c(c3)nnn4C)N(C(=O)[C@H]3CC(c4ccc(Cl)cc4)CN3)C2)cc1 (stereo partly drawn) [Example M05346]	∘∘	++ (fold selectivity value of 10 to 100)	< 5.70
COc1ccc(CC2C[C@@H](C(=O)NCc3ccc4c(c3)nnn4C)N(C(=O)[C@H]3C[C@@H](c4ccccc4)CN3)C2)cc1OC (stereo partly drawn) [Example M05348]	∘∘∘	+++ (fold selectivity values greater than 100)	5.70 to 6.70
CC(C)Oc1ccc(CC2C[C@@H](C(=O)NCc3ccc4c(c3)nnn4C)N(C(=O)[C@H]3C[C@@H](c4ccccc4)CN3)C2)cc1 (stereo partly drawn) [Example M05349]	∘∘	++ (fold selectivity value of 10 to 100)	5.70 to 6.70
Cn1nccc1-c1cccc(C[C@@H]2C[C@@H](C(=O)NCc3ccc4c(c3)nnn4C)N(C(=O)[C@H](N)CCC(=O)N3CCCC3)C2)c1 [Example M05350, (2S,4R)-1-((R)-2-Amino-5-oxo-5-pyrrolidin-1-yl-pentanoyl)-4-[3-(2-methyl-2H-pyrazol-3-yl)-benzyl]-pyrrolidine-2-carboxylic acid (1-methyl-1H-benzotriazol-5-ylmethyl)-amide]	∘∘∘	+++ (fold selectivity values greater than 100)	5.70 to 6.70
